Assay results: article PMC6476888, “Design and synthesis of anticancer 1-hydroxynaphthalene-2-carboxanilides with a p53 independent mechanism of action” (Scientific Reports, 2019)
Like-named read-outs stand apart in the source and are kept apart here.

How the values were obtained:
[1] = test system: HCT116^−/−; assay: Antiproliferative assay (MTS, 72 h) on HCT116 with p53 deletion; assay type: cell-based, human; details: for IC50: MTS, 72 h incubation
Protocol: (§1) All of the synthesized compounds were tested for their antiproliferative activity against human colon cancer (Table 1). We used both the wild-type and p53-negative cell lines (HCT116^+/+ and HCT116^−/−, respectively). Mutations in the TP53 gene are present in more than 50% of all cancers and often specifically correspond to a difficult therapy, resistance or a bad prognosis[60]–[63]. The active compounds were additionally tested for their cytotoxicity against normal human fibroblasts. We used 5-fluorouracil (5-FLU), doxorubicin (DOX) and CP-31398 as the standards. 5-FLU is one of the first antimetabolites that was dedicated for cancer treatment and is still used for a wide range of cancers including colon carcinoma. Doxorubicin is a DNA topoisomerase II poison with a high intercalating potency, which is able to induce apoptosis through the p53 pathway. Although DOX has been described as being ineffective in some p53 mutants, its level of activity against the p53 null lines is similar. CP-31398, on the other hand, is an experimental drug in the clinical phase and its mechanism of action is through the reactivation some of p53 mutants. Its activity against the p53 null cell lines is greatly diminished and is actually lower than its cytotoxicity.
(§2) The human colon cancer cell line HCT116 wild type was obtained from ATCC and the normal human fibroblast cell lines NHDF were obtained from PromoCell. The human colon cancer cell line HCT116 with a p53 deletion (p53^−/−) was kindly provided by Prof. M. Rusin from the Maria Sklodowska-Curie Memorial Cancer Centre and Institute of Oncology in Gliwice, Poland[89]. The cells were grown as monolayer cultures in Dulbecco’s modified Eagle’s medium with the antibiotic gentamicin (200 μL/100 mL medium) in 75 cm^2 flasks (Nunc). The DMEM for the HCT116 were supplemented with 12% heat-inactivated fetal bovine serum (Sigma-Aldrich, St. Louis, MO, USA) and for NHDF with 15% non-inactivated fetal bovine serum (Sigma Aldrich, St. Louis, MO, USA). The cells were cultured under standard conditions at 37 °C in a humidified atmosphere at 5% CO2.
(§3) The cells were seeded in 96-well plates (Nunc) at a density of 5,000 cells/well (HCT116) and 4,000 cells/well (NHDF) and incubated at 37 °C for 24 h. The assay was performed following a 72 h incubation with varying concentrations of the compounds that were being tested. Then, 20 µL of CellTiter 96® AQueous One Solution-MTS (Promega) was added to each well (with 100 µL DMEM without phenol red) and incubated for 1 h at 37 °C. The optical densities of the samples were analyzed at 490 nm using a Synergy 4 multi-plate reader (BioTek, Winooski, VT, USA). The results are expressed as the percentage of the control and were calculated as the inhibitory concentration (IC50) values (using a GraphPad Prism 7). The IC50 parameter was defined as the compound concentration that was necessary to reduce the proliferation of cells to 50% of the untreated control. Each individual compound was tested in triplicate in a single experiment with each experiment being repeated three or four times.

[2] = test system: HCT116^+/+; assay: Antiproliferative assay (MTS, 72 h) on HCT116 wild type; assay type: cell-based, human; details: MTS, 72 h incubation, read-out: Activity IC50 HCT116^+/+
Protocol: as §1, §2, §3

[3] = test system: NHDF; assay: Cytotoxicity (MTS, 72 h) against normal human fibroblasts; assay type: cell-based; details: for IC50: MTS, 72 h incubation
Protocol: as §1, §2, §3

Row | Compound | IC50 [1] | IC50 [2] | IC50 [3] | also measured
1 | O=C(Nc1ccc(C(F)(F)F)cc1)c1ccc2ccccc2c1O [7c] | 1.07 ± 0.26 µM | 4.31 ± 0.51 µM | 16.6 ± 2.17 µM | –
2 | O=C(Nc1c(Cl)cccc1Cl)c1ccc2ccccc2c1O [5g] | > 25 µM | > 25 µM | – | –
3 | COc1ccc(NC(=O)c2ccc3ccccc3c2O)cc1 [2c] | > 25 µM | > 25 µM | – | –
4 | O=C(Nc1ccccc1F)c1ccc2ccccc2c1O [4a] | > 25 µM | > 25 µM | – | –
5 | O=C(Nc1c(Br)cccc1Br)c1ccc2ccccc2c1O [6f] | > 25 µM | > 25 µM | – | –
6 | O=C(Nc1cccc([N+](=O)[O-])c1)c1ccc2ccccc2c1O [8b] | 3.1 ± 0.63 µM | 6.82 ± 1.17 µM | > 25 µM | –
7 | O=C(Nc1ccc([N+](=O)[O-])cc1C(F)(F)F)c1ccc2ccccc2c1O [7j] | 4.74 ± 1.68 µM | 2.04 ± 0.71 µM | 12.6 ± 1.32 µM | –
8 | O=C(Nc1ccc(C(F)(F)F)cc1[N+](=O)[O-])c1ccc2ccccc2c1O [8d] | > 25 µM | > 25 µM | – | –
9 | O=C(Nc1cc(Cl)cc(Cl)c1)c1ccc2ccccc2c1O [5i] | 2.89 ± 0.38 µM | 2.32 ± 0.26 µM | 11.5 ± 0.88 µM | –
10 | O=C(Nc1ccccc1Br)c1ccc2ccccc2c1O [6a] | > 25 µM | 22.5 ± 3.62 µM | > 25 µM | –
11 | O=C(Nc1ccc(Br)cc1C(F)(F)F)c1ccc2ccccc2c1O [7i] | > 25 µM | > 25 µM | – | –
12 | O=C(Nc1cc(Br)ccc1Br)c1ccc2ccccc2c1O [6e] | 5.85 ± 0.61 µM | 5.24 ± 0.28 µM | > 25 µM | –
13 | O=C(Nc1ccc(Br)cc1Br)c1ccc2ccccc2c1O [6d] | 4.61 ± 0.72 µM | 4.56 ± 0.43 µM | > 25 µM | –
14 | O=C(Nc1ccc([N+](=O)[O-])cc1)c1ccc2ccccc2c1O [8c] | 0.69 ± 0.09 µM | 0.41 ± 0.05 µM | 12.3 ± 1.49 µM | selectivity index ([3]; cytotoxicity against the normal cell line vs HCT116): 30
15 | O=C(Nc1cc(Cl)c(Cl)c(Cl)c1)c1ccc2ccccc2c1O [5l] | 2.86 ± 0.33 µM | 1.31 ± 0.15 µM | 7.01 ± 0.42 µM | –
16 | O=C(Nc1ccc(Cl)cc1C(F)(F)F)c1ccc2ccccc2c1O [7h] | > 25 µM | > 25 µM | – | –
17 | O=C(Nc1c(Cl)cc(Cl)cc1Cl)c1ccc2ccccc2c1O [5k] | > 25 µM | 19.4 ± 1.27 µM | > 25 µM | –
18 | COc1ccc(C(F)(F)F)cc1NC(=O)c1ccc2ccccc2c1O [2i] | – | – | – | IC50 ([1]; Homo sapiens, HCT-116): > 25 µM; IC50 ([2]; Homo sapiens, HCT-116): > 25 µM
19 | Cc1ccccc1NC(=O)c1ccc2ccccc2c1O [3a] | > 25 µM | > 25 µM | – | –
20 | O=C(Nc1ccc(F)cc1)c1ccc2ccccc2c1O [4c] | 5.01 ± 1.12 µM | 2.49 ± 0.61 µM | > 25 µM | –
21 | COc1ccccc1NC(=O)c1ccc2ccccc2c1O [2a] | > 25 µM | > 25 µM | – | –
22 | O=C(Nc1ccc(Br)c(Cl)c1)c1ccc2ccccc2c1O [5t] | 12.6 ± 0.69 µM | 12.3 ± 0.79 µM | > 25 µM | selectivity towards the p53 null cells (HCT116 p53^−/− vs wild type) [1]: not selective
23 | O=C(Nc1cc(Cl)c(Cl)cc1Cl)c1ccc2ccccc2c1O [5j] | 6.21 ± 0.66 µM | 3 ± 0.24 µM | 20.2 ± 0.79 µM | –
24 | O=C(Nc1ccc(C(F)(F)F)c(F)c1)c1ccc2ccccc2c1O [4w] | – | – | – | IC50 ([1]; Homo sapiens, HCT-116): 4.82 ± 1.46 µM; IC50 ([2]; Homo sapiens, HCT-116): 3.25 ± 0.94 µM; IC50 ([3]; Homo sapiens, NHDF): 22.8 ± 2.69 µM
25 | O=C(Nc1cccc(C(F)(F)F)c1)c1ccc2ccccc2c1O [7b] | 1.39 ± 0.29 µM | 6.25 ± 0.47 µM | > 25 µM | –
26 | O=C(Nc1cc(C(F)(F)F)ccc1C(F)(F)F)c1ccc2ccccc2c1O [7e] | 8.53 ± 3.37 µM | 4.44 ± 1.16 µM | 22.9 ± 2.1 µM | –
27 | O=C(Nc1cc(Cl)ccc1Cl)c1ccc2ccccc2c1O [5f] | 7.19 ± 1.15 µM | 7.45 ± 0.85 µM | > 25 µM | –
28 | O=c1[nH]cc(F)c(=O)[nH]1 [5-FLU, 5-fluorouracil, reference compound] | – | – | – | IC50 ([1]; Homo sapiens, HCT-116): 4.69 ± 0.31 µM; IC50 ([2]; Homo sapiens, HCT-116): 4.42 ± 0.7 µM; IC50 ([3]; Homo sapiens, NHDF): > 25 µM
29 | O=C(Nc1ccc(C(F)(F)F)cc1Cl)c1ccc2ccccc2c1O [5o] | 5.41 ± 1.11 µM | 4.92 ± 1.32 µM | 13.2 ± 1.97 µM | –
